# Laboratory results published in US11427548B2 (Arvinas Operations, Inc., priority 2015, dated 2022).
# Like-named read-outs stand apart in the source and are kept apart here.
# Target: T1, Androgen Receptor (Homo sapiens, UniProt P10275)
# T1 construct: endogenous in cells; host or cells: VCaP cells
# T1 sequence (P10275 1-920): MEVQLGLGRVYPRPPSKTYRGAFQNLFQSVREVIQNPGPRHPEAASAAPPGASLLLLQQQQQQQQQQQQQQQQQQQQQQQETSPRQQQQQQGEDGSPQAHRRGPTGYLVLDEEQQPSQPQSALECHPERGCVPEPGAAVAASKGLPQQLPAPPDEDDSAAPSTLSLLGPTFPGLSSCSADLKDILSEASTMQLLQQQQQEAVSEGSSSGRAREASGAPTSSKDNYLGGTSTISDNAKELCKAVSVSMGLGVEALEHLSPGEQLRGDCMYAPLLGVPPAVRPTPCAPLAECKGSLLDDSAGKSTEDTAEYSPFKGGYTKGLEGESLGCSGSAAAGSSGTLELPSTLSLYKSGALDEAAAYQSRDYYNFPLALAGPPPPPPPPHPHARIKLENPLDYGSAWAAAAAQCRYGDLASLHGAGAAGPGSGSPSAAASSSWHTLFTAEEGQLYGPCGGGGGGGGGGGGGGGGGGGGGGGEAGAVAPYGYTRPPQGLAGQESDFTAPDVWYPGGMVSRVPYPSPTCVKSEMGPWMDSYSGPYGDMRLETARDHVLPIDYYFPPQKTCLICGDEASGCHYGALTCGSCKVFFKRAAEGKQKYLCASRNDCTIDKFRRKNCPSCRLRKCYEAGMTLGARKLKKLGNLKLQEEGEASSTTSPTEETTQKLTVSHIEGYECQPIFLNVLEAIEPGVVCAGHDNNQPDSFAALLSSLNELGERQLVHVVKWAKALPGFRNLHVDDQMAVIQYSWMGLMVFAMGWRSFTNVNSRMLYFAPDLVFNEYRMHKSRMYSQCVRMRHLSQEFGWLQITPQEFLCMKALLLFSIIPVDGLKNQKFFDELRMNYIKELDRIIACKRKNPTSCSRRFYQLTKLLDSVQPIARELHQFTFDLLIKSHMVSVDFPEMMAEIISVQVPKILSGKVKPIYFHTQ
# Assay: Androgen Receptor ELISA assay (PathScan AR ELISA) in VCaP cells: AR degradation, Dmax and DC50
# Assay type: cell-based
# Procedure, shortened: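 After 24 h exposure of VCaP cells (charcoal-stripped serum, 0.1 nM R1881 agonist, 0.1% DMSO) to seven half-log compound concentrations, residual AR in lysates was measured by PathScan ELISA (TMB absorbance, 450 nm). Cells were plated at 30,000/well and grown at least 3 days beforehand.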
# [1] = VCaP cells; Table 35; read-out: VCaP DC50
# [2] = VCaP, VCaP cells; Table 35; read-out: VCaP Dmax (%)
# [3] = read-out: VCaP DC50; VCaP cells; Table 35
# [4] = VCaP cells; Table 36; read-out: VCaP DC50
# [5] = VCaP, VCaP cells; Table 36; read-out: VCaP Dmax (%)
# [6] = read-out: VCaP DC50; VCaP cells; Table 36
DC50 [1],Dmax [2],SMILES,"Dmax (VCaP, read-out: VCaP Dmax (%))",other results
< 50 nM,> 71%,C[C@H](NC(=O)[C@@H]1C[C@@H](O)CN1C(=O)[C@@H](NC(=O)COCCCCOc1ccc(C(=O)N[C@H]2C(C)(C)[C@H](Oc3ccc(C#N)c(Cl)c3)C2(C)C)cc1)C(C)(C)C)c1ccc(-c2nncs2)cc1 [Example 570],–,–
< 50 nM,> 71%,CC(C)(C)[C@H](NC(=O)COCCCCOc1ccc(-c2ccc(N3C(=S)N(c4cnc(C#N)c(C(F)(F)F)c4)C(=O)C3(C)C)cc2)cc1)C(=O)N1C[C@H](O)C[C@H]1C(=O)NCc1ccc(C#N)cc1 [Example 571],–,–
< 50 nM,> 71%,C[C@H](NC(=O)[C@@H]1C[C@@H](O)CN1C(=O)[C@@H](NC(=O)COCCCCOc1ccc(C(=O)N[C@H]2C(C)(C)[C@H](Oc3ccc(C#N)c(Cl)c3)C2(C)C)cc1)C(C)(C)C)c1ccc(Cl)cc1 [Example 572],–,–
> 501 nM,51 to 70%,CC(C)(C)[C@H](NC(=O)COCCOc1ccc(-c2ccc(C(=O)N[C@H]3C(C)(C)[C@H](Oc4ccc(C#N)c(Cl)c4)C3(C)C)cc2)cc1)C(=O)N1C[C@H](O)C[C@H]1C(=O)NCc1ccc(Cl)cc1 [Example 573],–,–
–,–,Cc1ncsc1-c1ccc([C@H](C)NC(=O)[C@@H]2C[C@@H](O)CN2C(=O)[C@@H](NC(=O)COC[C@@H](O)[C@H](O)COc2ccc(-c3ccc(N4C(=S)N(c5ccc(C#N)c(C(F)(F)F)c5)C(=O)C4(C)C)cc3)cc2)C(C)(C)C)cc1 [Example 574],> 71%,DC50 [3]: < 50 nM
–,–,Cc1ncsc1-c1ccc([C@H](C)NC(=O)[C@@H]2C[C@@H](O)CN2C(=O)[C@@H](NC(=O)COC[C@@H](O)CCOc2ccc(-c3ccc(N4C(=S)N(c5ccc(C#N)c(C(F)(F)F)c5)C(=O)C4(C)C)cc3)cc2)C(C)(C)C)cc1 [Example 575],> 71%,DC50 [3]: < 50 nM
–,–,Cc1ncsc1-c1ccc([C@H](C)NC(=O)[C@@H]2C[C@@H](O)CN2C(=O)[C@@H](NC(=O)COC[C@H](O)CCOc2ccc(-c3ccc(N4C(=S)N(c5ccc(C#N)c(C(F)(F)F)c5)C(=O)C4(C)C)cc3)cc2)C(C)(C)C)cc1 [Example 576],> 71%,DC50 [3]: < 50 nM
< 50 nM,> 71%,Cc1ncsc1-c1ccc(CNC(=O)[C@@H]2C[C@@H](O)CN2C(=O)[C@@H](NC(=O)COC[C@H](O)[C@@H](O)COc2ccc(C(=O)N[C@H]3C(C)(C)[C@H](Oc4ccc(C#N)c(Cl)c4)C3(C)C)cc2)C(C)(C)C)cc1 [Example 577],–,–
–,–,"Cc1ncsc1-c1ccc([C@H](C)NC(=O)[C@@H]2C[C@@H](O)CN2C(=O)[C@H](C(C)C)n2cc(-c3ccnc(OC4CN(c5ccc(C(=O)N[C@H]6C(C)(C)[C@H](Oc7ccc(C#N)c(Cl)c7)C6(C)C)cn5)C4)c3)cn2)cc1 [Example 594, N-((1r,3r)-3-(3-chloro-4-cyanophenoxy)-2,2,,4-tetramethylcyclobutyl)-6-(3-((4-(1-((S)-1-((2S,4R)-4-hydroxy-2-(((S)-1-(4-(4-methylthiazol-5-yl)phenyl)ethyl)carbam-oyl)pyrrolidin-1-yl)-3-methyl-1-oxobutan-2-yl)-1H-pyrazol-4-yl)pyridin-2-yl)oxy)azetidin-1-yl)nicotinamide]",–,DC50 [4]: > 501 nM; Dmax [5]: < 25%
–,–,"Cc1ncsc1-c1ccc([C@H](C)NC(=O)[C@@H]2C[C@@H](O)CN2C(=O)[C@@H](C(C)C)n2cc(-c3ccnc(OC4CN(c5ccc(C(=O)N[C@H]6C(C)(C)[C@H](Oc7ccc(C#N)c(Cl)c7)C6(C)C)cn5)C4)c3)cn2)cc1 [Example 595, N-((1r,3r)-3-(3-chloro-4-cyanophenoxy)-2,2,4,4-tetramethylcyclobutyl)-6-(3-((4-(1-((R)-1-((2S,4R)-4-hydroxy-2-(((S)-1-(4-(4-methylthiazol-5-yl)phenyl)ethyl)carbam-oyl)pyrrolidin-1-yl)-3-methyl-1-oxobutan-2-yl)-1H-pyrazol-4-yl)pyridin-2-yl)oxy)azetidin-1-yl)nicotinamide]",–,DC50 [4]: < 50 nM; Dmax [5]: 51 to 70%
–,–,"Cc1ncsc1-c1ccc([C@H](C)NC(=O)[C@@H]2C[C@@H](O)CN2C(=O)[C@H](C(C)C)n2cc(-c3ccnc(N4CC[C@@H](Nc5ccc(C(=O)N[C@H]6C(C)(C)[C@H](Oc7ccc(C#N)c(Cl)c7)C6(C)C)cc5)C4)c3)cn2)cc1 [Example 596, (2S,4R)-1-((S)-2-(4-(2-((R)-3-((4-(((1r,3R)-3-(3-chloro-4-cyanophenoxy)-2,2,4,4-tetramethylcyclobutyl)carbamoyl)phenyl)amino)pyrrolidin-1-yl)pyridin-4-yl)-1H-pyrazol-1-yl)-3-methylbutanoyl)-4-hydroxy-N-((S)-1-(4-(4-methylthiazol-5-yl)phenyl)ethyl)pyrroli-dine-2-carboxamide]",–,DC50 [4]: > 501 nM; Dmax [5]: 26 to 50%
–,–,"Cc1ncsc1-c1ccc([C@H](C)NC(=O)[C@@H]2C[C@@H](O)CN2C(=O)[C@@H](C(C)C)n2cc(-c3ccnc(N4CC[C@@H](Nc5ccc(C(=O)N[C@H]6C(C)(C)[C@H](Oc7ccc(C#N)c(Cl)c7)C6(C)C)cc5)C4)c3)cn2)cc1 [Example 597, (2S,4R)-1-((R)-2-(4-(2-((R)-3-((4-(((1r,3R)-3-(3-chloro-4-cyanophenoxy)-2,2,4,4-tetramethylcylcobutyl)carbamoyl)phenyl)amino)pyrrolidin-1-yl)pyridin-4-yl)-1H-pyrazol-1-yl)-3-methylbutanoyl)-4-hydroxy-N-((S)-1-(4-(4-methylthiazol-5-yl)phenyl)ethyl)pyrroli-dine-2-carboxamide]",–,DC50 [4]: > 501 nM; Dmax [5]: < 25%
–,–,"Cc1ncsc1-c1ccc(CNC(=O)[C@@H]2C[C@@H](O)CN2C(=O)[C@H](C(C)C)n2cc(OC3CCN(c4ccc(-c5ccc(N6C(=S)N(c7ccc(C#N)c(C(F)(F)F)c7)C(=O)C6(C)C)cc5)cn4)CC3)cn2)cc1 [Example 598, 1-(2-(4-((1-(5-(4-(3-(4-cyano-3-(trifluoromethyl)phenyl)-5,5-dimethyl-4-oxo-2-thioxoimidazolidin-1-yl)phenyl)pyridin-2-yl)piperidin-4-yl)oxy)-1H-pyrazol-1-yl)-3-mehtylbutanoyl)-4-hydroxy-N-(4-(4-methylthiazol-5-yl)benzyl)pyrrolidine-2-carboxamide]",26 to 50%,DC50 [6]: > 501 nM
–,–,"Cc1ncsc1-c1ccc(CNC(=O)[C@@H]2C[C@@H](O)CN2C(=O)[C@@H](C(C)C)n2cc(OC3CCN(c4ccc(-c5ccc(N6C(=S)N(c7ccc(C#N)c(C(F)(F)F)c7)C(=O)C6(C)C)cc5)cn4)CC3)cn2)cc1 [Example 599, (2S,4R)-1-((R)-2-(4-((1-(5-(4-(3-(4-cyano-3-(trifluoromethyl)phenyl)-5,5-dimethyl-4-oxo-2-thioxoimidazolidin-1-yl)phenyl)pyridin-2-yl)piperidin-4-yl)oxy)-1H-pyrazol-1-yl)-3-methylbutanoyl)-4-hydroxy-N-(4-(4-methylthiazol-5-yl)benzyl)pyrrolidine-2-carboxamide]",26 to 50%,DC50 [6]: > 501 nM
–,–,"Cc1ncsc1-c1ccc([C@H](C)NC(=O)[C@@H]2C[C@@H](O)CN2C(=O)[C@H](C(C)C)n2cc(Oc3cccc(OCCCCCOc4ccc(N5C(=S)N(c6ccc(C#N)c(C(F)(F)F)c6)C(=O)C5(C)C)cc4)c3)cn2)cc1 [Example 600, (2S,4R)-1-((S)-2-(4-(3-((5-(4-(3-(4-cyano-3-(trifluoromethyl)phenyl)-5,5-dimethyl-4-oxo-2-thioxoimidazolidin-1-yl)phenoxy)pentyl)oxy)phenoxy)-1H-pyrazol-1-yl)-3-methylbutanoyl)-4-hydroxy-N-((S)-1-(4-(4-methylthiazol-5-yl)phenyl)ethyl)pyrroli-dine-2-carboxamide]",26 to 50%,DC50 [6]: > 501 nM
–,–,"Cc1ncsc1-c1ccc(CNC(=O)[C@@H]2C[C@@H](O)CN2C(=O)[C@H](C(C)C)n2cc(Oc3cccc(OCCCCCOc4ccc(N5C(=S)N(c6ccc(C#N)c(C(F)(F)F)c6)C(=O)C5(C)C)cc4)c3)cn2)cc1 [Example 601, (2S,4R)-1-((S)-2-(4-(3-((5-(4-(3-(4-cyano-3-(trifluoromethyl)phenyl)-5,5-dimethyl-4-oxo-2-thioxoimidazolidin-1-yl)phenoxy)pentyl)oxy)phenoxy)-1H-pyrazol-1-yl)-3-methylbutanoyl)-4-hydroxy-N-(4-(4-methylthiazol-5-yl)benzyl)pyrrolidine-2-carboxamide]",< 25%,DC50 [6]: > 501 nM
